Results published in PMC7238232, “Acamprosate Is a Substrate of the Human Organic Anion Transporter (OAT) 1 without OAT3 Inhibitory Properties: Implications for Renal Acamprosate Secretion and Drug–Drug Interactions” (Pharmaceutics, 2020).
Where two headings read alike, the source gives them in different places. Marks after values point to notes of the source that are not given here.

Experiments:
OAT1 = molecular target: T1, OAT1 (Homo sapiens, UniProt Q4U2R8); assay: Drug-drug interaction (DDI) index calculation, OAT1; conditions: for DDI Index, PAH: acamprosate
T1 sequence (Q4U2R8 1-563): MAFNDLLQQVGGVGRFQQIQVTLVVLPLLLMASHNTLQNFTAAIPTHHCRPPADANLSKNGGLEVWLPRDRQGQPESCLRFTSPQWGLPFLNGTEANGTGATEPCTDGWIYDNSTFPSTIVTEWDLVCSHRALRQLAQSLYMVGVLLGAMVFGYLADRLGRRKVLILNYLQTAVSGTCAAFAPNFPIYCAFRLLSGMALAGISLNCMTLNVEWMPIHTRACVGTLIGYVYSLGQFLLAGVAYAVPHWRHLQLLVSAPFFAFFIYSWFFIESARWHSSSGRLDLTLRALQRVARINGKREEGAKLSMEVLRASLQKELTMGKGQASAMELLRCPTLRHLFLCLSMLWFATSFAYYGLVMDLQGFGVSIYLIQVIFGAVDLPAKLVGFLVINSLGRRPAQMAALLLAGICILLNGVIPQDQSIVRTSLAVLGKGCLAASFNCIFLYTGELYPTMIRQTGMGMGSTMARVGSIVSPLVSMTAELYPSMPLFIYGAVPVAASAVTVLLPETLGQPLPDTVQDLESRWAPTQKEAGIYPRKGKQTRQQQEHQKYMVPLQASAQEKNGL
Text: Input values for Cmax,u or C0,u calculated from clinical studies are listed in Appendix B, Table A1.

[1] = rats, cited from earlier work
PEPT1 = conditions: Caco-2 cells, preliminary data; cited from earlier work
PAT1 = conditions: Caco-2 cells, preliminary data; cited from earlier work
HEK293-Flp-In mock cells = assay: CellTiter-Glo cell viability assay, mock cells; conditions: up to 3300 µM acamprosate; 3 h
[2] = Clinical pharmacokinetics in humans (literature); conditions: for Cmax,u: acamprosate, calculated
HEK293-Flp-In OAT3 cells = assay: CellTiter-Glo cell viability assay, OAT3 transfected cells; conditions: up to 3300 µM acamprosate; 3 h

With CC(=O)NCCCS(=O)(=O)O [acamprosate, acetylhomotaurinate] the “DDI Index, PAH” value (OAT1; IV bolus, 333 mg) was 0.12–0.53 *, the “DDI Index, PAH” value (OAT1; IV bolus, 666 mg) was 0.17–0.75 * and the “DDI Index, PAH” value (OAT1; IV bolus, 710 mg) was 0.19–0.80 *. For the same compound, the “DDI Index, PAH” value (OAT1; IV bolus, 1420 mg) was 0.40–1.69 *, the “DDI Index, PAH” value (OAT1; IV bolus, 2130 mg) was 0.62–2.68 * and the “DDI Index, PAH” value (OAT1; oral solution, 333 mg) was 0.00–0.01. The “DDI Index, PAH” value (OAT1; oral solution, 666 mg) was 0.00–0.01, the “DDI Index, PAH” value (OAT1; oral solution, 1332 mg) was 0.00–0.02 and the “DDI Index, PAH” value (OAT1; oral solution, 2664 mg) was 0.01–0.03. For the same compound, the “DDI Index, PAH” value (OAT1; oral tablet, 666 mg) was 0.00–0.00, the “DDI Index, PAH” value (OAT1; oral tablet, 1332 mg) was 0.001–0.01 and the “DDI index, substrate PAH” value (OAT1; oral administration of inhibitor, range over doses) was 0.001–0.008. For the same compound, the “CLR, % of the initial CLR” value ([1]; 9.3 mg/kg acamprosate i.v. with 33.3 mg/kg probenecid) was 59%, the “CLR, % of the initial CLR” value ([1]; 9.3 mg/kg acamprosate i.v. with 66.6 mg/kg probenecid) was 45% and the “unbound acamprosate CLR with probenecid, compared to control” value [1] was 0.45 fold. For the same compound, the “increase in acamprosate AUC0∞ caused by probenecid” value ([1]; compared to control) was 2.2 fold, the “renal clearance (CLR)” value ([1]; intravenous 9.3 mg/kg acamprosate, without probenecid) was 0.35 L/h and the “inhibition of substrate transport via PEPT1” value (PEPT1) was “did not inhibit”. The “inhibition of substrate transport via PAT1” value (PAT1) was “did not inhibit”, the “decrease in cell viability” value (HEK293-Flp-In mock cells) was ≤ 10% and the “Cmax,u” value ([2]; IV bolus, 333 mg) was 153 ± 38 µM. For the same compound, the “Cmax,u” value ([2]; IV bolus, 666 mg) was 214 ± 10 µM, the “Cmax,u” value ([2]; IV bolus, 710 mg) was 230 ± 64 µM and the “Cmax,u” value ([2]; IV bolus, 1420 mg) was 486 ± 106 µM. For the same compound, the “Cmax,u” value ([2]; IV bolus, 2130 mg) was 768 ± 149 µM, the “Cmax,u” value ([2]; oral solution, 333 mg) was 1.8 ± 0.8 µM and the “Cmax,u” value ([2]; oral solution, 666 mg) was 4.3 ± 1.4 µM. For the same compound, the “Cmax,u” value ([2]; oral solution, 1332 mg) was 5.0 ± 1.7 µM, the “Cmax,u” value ([2]; oral solution, 2664 mg) was 8.6 ± 4.1 µM and the “Cmax,u” value ([2]; oral tablet, 666 mg) was 1.4 ± 1.1 µM. For the same compound, the “Cmax,u” value ([2]; oral tablet, 1332 mg) was 1.5 ± 0.1 µM, the “contribution of active secretion to total CLR” value ([2]; estimated from CLR and GFR·fu) was “more than 44%” and the “decrease in cell viability” value (HEK293-Flp-In OAT3 cells) was ≤ 10%.
